Test results taken from patent US20240148707A1, “MODULATION OF DRUG-DRUG INTERACTIONS OF VADADUSTAT” (Akebia Therapeutics, Inc., priority 2021, published 2024).
Read-outs that look alike come from different tables or passages of the source.

Key:
UGT1A1 = target: T1, UGT1A1 (Homo sapiens, UniProt P22309); test: Enzyme inhibition (in vitro); type: in vitro ADME
T1 sequence (P22309 26-533): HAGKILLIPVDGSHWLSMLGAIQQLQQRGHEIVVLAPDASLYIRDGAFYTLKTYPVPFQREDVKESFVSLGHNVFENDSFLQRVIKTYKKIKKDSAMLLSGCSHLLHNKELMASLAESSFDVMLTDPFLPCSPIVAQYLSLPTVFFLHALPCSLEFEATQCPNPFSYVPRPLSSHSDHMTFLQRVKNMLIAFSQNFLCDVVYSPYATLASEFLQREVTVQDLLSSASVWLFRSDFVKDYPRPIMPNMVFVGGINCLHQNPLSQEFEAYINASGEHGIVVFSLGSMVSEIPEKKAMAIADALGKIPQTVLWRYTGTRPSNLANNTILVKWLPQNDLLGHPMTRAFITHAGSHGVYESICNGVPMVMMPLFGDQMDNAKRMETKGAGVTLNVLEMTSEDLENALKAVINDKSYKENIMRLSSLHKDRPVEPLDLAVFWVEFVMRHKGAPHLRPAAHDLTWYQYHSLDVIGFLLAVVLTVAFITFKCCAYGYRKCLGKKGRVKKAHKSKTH

[1] = Phase III clinical trial in patients with hemodialysis anemia; type: in vivo, human
Experimental: The incidence of adverse reactions when this drug was administered up to 24 weeks was 8.3% (2/24 cases).

CYP2C9 = CYP2C9 (Homo sapiens, UniProt P11712); test: Enzyme inhibition (in vitro); type: in vitro ADME
Sequence of CYP2C9 (P11712 whole entry): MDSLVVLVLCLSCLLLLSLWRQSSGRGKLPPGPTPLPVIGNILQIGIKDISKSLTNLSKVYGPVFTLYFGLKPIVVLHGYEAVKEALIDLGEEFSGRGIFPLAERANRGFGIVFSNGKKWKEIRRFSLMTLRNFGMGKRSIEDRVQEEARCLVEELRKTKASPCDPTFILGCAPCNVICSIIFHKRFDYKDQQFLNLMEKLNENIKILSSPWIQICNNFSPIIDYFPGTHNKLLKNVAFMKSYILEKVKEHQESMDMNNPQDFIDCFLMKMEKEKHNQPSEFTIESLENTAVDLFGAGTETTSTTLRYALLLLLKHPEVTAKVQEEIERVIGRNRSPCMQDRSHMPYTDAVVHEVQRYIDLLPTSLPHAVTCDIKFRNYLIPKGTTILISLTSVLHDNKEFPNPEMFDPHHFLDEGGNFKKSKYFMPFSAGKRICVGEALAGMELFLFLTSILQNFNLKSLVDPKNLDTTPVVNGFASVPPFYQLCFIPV

[2] = Plasma pharmacokinetics, repeated once-daily administration to healthy adult men; type: in vivo, human; settings: first day of administration
[3] = [14C]-labeled Compound 1 metabolism and excretion study in healthy adult males; type: in vivo, human
From the text: The urinary excretion rate of this drug and acyl glucuronide is less than 1% of the total radioactivity.

CYP2B6 = target: T2, CYP2B6 (Homo sapiens, UniProt P20813); test: Enzyme inhibition (in vitro); type: in vitro ADME
T2 sequence (P20813 1-491): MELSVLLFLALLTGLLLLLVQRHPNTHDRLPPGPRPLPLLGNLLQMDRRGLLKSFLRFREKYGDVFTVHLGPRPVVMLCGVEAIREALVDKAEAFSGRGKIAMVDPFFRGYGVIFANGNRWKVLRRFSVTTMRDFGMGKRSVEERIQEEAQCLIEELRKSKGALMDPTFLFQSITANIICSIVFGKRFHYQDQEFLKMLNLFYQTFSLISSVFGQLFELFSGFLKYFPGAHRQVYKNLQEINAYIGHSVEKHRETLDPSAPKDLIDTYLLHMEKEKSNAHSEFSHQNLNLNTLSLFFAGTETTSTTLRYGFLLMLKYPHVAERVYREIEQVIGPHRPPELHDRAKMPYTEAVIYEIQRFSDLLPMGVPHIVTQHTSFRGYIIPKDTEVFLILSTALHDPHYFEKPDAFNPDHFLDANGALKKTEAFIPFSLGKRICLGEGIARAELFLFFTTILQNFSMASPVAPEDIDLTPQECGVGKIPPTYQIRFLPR

[4] = Phase I drug-drug interaction study with probenecid (Part 1, Arm 2); type: in vivo, human; settings: for AUC(0-inf) / AUC(0-t) / Cmax: both sexes, human, plasma, fasted
Experimental: A phase I, open-label, 2-part study was conducted in healthy male and female subjects to evaluate the potential for interaction of cyclosporine (Part 1, Arm 1), probenecid (Part 1, Arm 2), and rifampin (Part 2) with vadadustat.
On the morning of Day 1, subjects received a single oral dose of vadadustat (300 mg) as 2×150 mg tablets after at least a 10-hour overnight fast and remained fasted for at least 4 hours post-dose. Following a 2-day washout (Days 1 to 2), subjects received 1 oral probenecid 500 mg tablet Q12 h for 4 days (Days 3 to 6). On days that probenecid was administered alone (Days 3, 4, and 6), probenecid was administered in a fasted state 1 hour prior to a standard breakfast and 1 hour prior to an evening meal or snack. On Day 5, probenecid was co-administered with a single dose of vadadustat (300 mg as 2×150 mg tablets) following at least a 10-hour fast. Subjects remained fasted for at least 4 hours after dosing.
On days vadadustat was administered (Day 1 and Day 5), blood samples for PK analysis were collected up to 48 hours postdose. In addition, on vadadustat dosing days, pooled urine samples were collected up to 24 hours post-dose. Subjects were discharged from the CRU on the morning of Day 7, after the final 48-hour post-dose PK sample had been collected. A follow-up phone call was conducted 30 days±2 days after the final dose.

- inhibitory effect on UGT1A1 (UGT1A1): inhibitory effect
- inhibitory effect on CYP2C9 (CYP2C9): inhibitory effect
- Tmax ([2]; 300 mg once a day): 1.95 h
- t1/2 ([2]; 300 mg once a day): 6.14 ± 0.763 h
- Tmax ([2]; 600 mg once a day): 1.98 h
- share of the total radioactivity (AUC0-∞) in plasma ([3]; healthy adult male (6), single oral 650 mg [14C]-labeled Compound 1): 75%
- total radioactivity administered recovered in urine ([3]; single dose 650 mg [14C]-labeled, by 72 hours after administration): 58.9%
- inhibitory effect on CYP2B6 (CYP2B6): inhibitory effect
- AUC(0-inf) ([4]; oral, vadadustat 300 mg single dose + probenecid 500 mg Q12h (multiple doses), read-out: AUCinf, geometric LSM, Treatment V + P): 427 µg·h/mL
- AUC(0-t) ([4]; oral, vadadustat 300 mg single dose + probenecid 500 mg Q12h (multiple doses), read-out: AUClast, geometric LSM, Treatment V + P): 417 µg·h/mL
- Cmax ([4]; oral, vadadustat 300 mg single dose + probenecid 500 mg Q12h (multiple doses), read-out: Cmax, geometric LSM, Treatment V + P): 48800 ng/mL
- AUC(0-inf) ([4]; vadadustat 300 mg alone, single oral dose, read-out: AUCinf, geometric LSM, Treatment V): 234 µg·h/mL
- AUC(0-t) ([4]; vadadustat 300 mg alone, single oral dose, read-out: AUClast, geometric LSM, Treatment V): 233 µg·h/mL
- Cmax ([4]; vadadustat 300 mg alone, single oral dose, read-out: Cmax, geometric LSM, Treatment V): 47500 ng/mL
- change of Cmax values ([4]; in combination with probenecid): relatively unchanged
- urinary excretion ([4]; in combination with probenecid): decreased
Structure (SMILES): O=C(O)CNC(=O)c1ncc(-c2cccc(Cl)c2)cc1O [Compound 1, {[5-(3-chlorophenyl)-3-hydroxypyridine-2-carbonyl]amino}acetic acid]
- incidence of adverse reactions ([1]; administered up to 24 weeks (2/24 cases)): 8.3%
- hemoglobin level before administration ([1]; baseline, 23 people, mean ± standard deviation): 9.30 ± 0.67
- tolerability ([4]; during treatment with probenecid, healthy subjects): tolerated
